Where two headings read alike, the source gives them in different places.
System: TGFβ signal
Experiment: TGFβ signal inhibitory activity, (SBE)4-Luc reporter in A549 cells (Test Examples 1A and 1B)
Format: cell-based, human
Conditions: Homo sapiens, A549, read-out: TGFβ inhibition rate, %
Outline: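 Compounds at 3 µM and 10 µM (some 1 µM) were added with 2 ng/ml TGFβ-1 to A549 cells stably expressing an SBE-driven luciferase, then cultured 4 hr. Chemiluminescent luciferase signal gave % inhibition versus TGFβ-alone and no-TGFβ controls.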

[1] = test compound 3 µM, TGFβ-1 2 ng/ml, 4 hr, Table 1A
[2] = test compound 10 µM, TGFβ-1 2 ng/ml, 4 hr, Table 1A
[3] = 3 µM, compounds of Reference Examples (Test Example 1B)
[4] = 10 µM, compounds of Reference Examples (Test Example 1B)
[5] = test compound 3 µM, Reference Examples, Table 1B
[6] = test compound 10 µM, Reference Examples, Table 1B

`COc1cc2nccc(Oc3cc4cccnc4nc3-c3ccccc3)c2cc1Br` [Compound 132, 3-(6-Bromo-7-methoxy-quinolin-4-yloxy)-2-phenyl-[1,8]naphthyridine] was tested, and the inhibition at 3 µM [1] was 98% and the inhibition at 10 µM [2] was 100%.

For `COc1cc2nccc(Oc3ccc(C)nc3-c3ccc(O)cc3)c2cc1OC` [Compound r248], the inhibition at 3 µM [3] was 99% and the inhibition at 10 µM [4] was 100%.

`COc1cc2nccc(Oc3ccc4c(c3)C(=O)c3ccccc3-4)c2cc1OC` [Compound r19] gave an inhibition at 3 µM [5] of 73% and an inhibition at 10 µM [6] of 95%.

For `COc1cc2nccc(Oc3ccc(C)nc3-c3ccc(F)cc3)c2cc1OC` [Compound r251], the inhibition at 3 µM [3] was 84% and the inhibition at 10 µM [4] was 100%.

With `COc1cc2nccc(Oc3ccc(C)nc3-c3ccc(C(C)=O)cc3)c2cc1OC` [Compound r246] the inhibition at 3 µM [3] was 64% and the inhibition at 10 µM [4] was 93%.

`CCc1ccc(Oc2ccnc3ccccc23)c(-c2ncccn2)n1` [Compound 117, 4-(6-Ethyl-2-pyrimidin-2-yl-pyridin-3-yloxy)-quinoline] gave an inhibition at 3 µM [1] of 96% and an inhibition at 10 µM [2] of 100%.

For `COc1cc2c(Oc3cc4ccccc4nc3C)ccnc2cc1OCCNC(=O)CC(C)(C)CC(=O)O` [Compound r357], the inhibition at 3 µM [3] was 27% and the inhibition at 10 µM [4] was 60%.

With `COc1ccc(C(C)=O)c(Oc2ccnc3cc(OC)c(OC)cc23)c1` [r31] the inhibition at 3 µM [5] was 49% and the inhibition at 10 µM [6] was 98%.

Work on `COc1cc2c(Oc3cc4ccccc4nc3C)ccnc2cc1OCCCNC(=N)N` [Compound r377] yielded an inhibition at 3 µM [3] of 93% and an inhibition at 10 µM [4] of 100%.

In the case of `Cc1cc(Oc2ccnc3ccccc23)c(-c2cccnc2)nc1C` [Compound 43, 5,6-Dimethyl-3-(quinolin-4-yloxy)-[2,3']bipyridine], the inhibition at 1 µM (test compound 1 µM, TGFβ-1 2 ng/ml, 4 hr, Table 1A) is reported as 45% and the inhibition at 3 µM [1] is reported as 84%.

`Cc1cc(Oc2ccnc3cc(O)ccc23)c(-c2ccccn2)nc1C` [Compound 140, 4-(5,6-Dimethyl-[2,2']bipyridinyl-3-yloxy)-quinolin-7-ol] gave an inhibition at 3 µM [1] of 99% and an inhibition at 10 µM [2] of 100%.

`COc1cc2c(Oc3ccc(C)cc3C(=O)c3ccccc3)ccnc2cc1OCC(O)CN1CCNCC1` (centres unmarked) [Compound r157] was tested, and the inhibition at 3 µM [5] was 100% and the inhibition at 10 µM [6] was 100%.

`COc1cc2c(Oc3cc4ccccc4nc3C(C)=O)ccnc2cc1OCC(CO)CO` [Compound r396] was tested, and the inhibition at 3 µM [3] was 96%.

With `COc1cc2c(Oc3cc4cccnc4nc3C)ccnc2cc1OCc1ccccc1` [Compound r397] the inhibition at 3 µM [3] was 71% and the inhibition at 10 µM [4] was 100%.

In the case of `COc1cc2nccc(Oc3cnc4ncccc4c3)c2cc1OC` [Compound r427], the inhibition at 3 µM [3] is reported as 44% and the inhibition at 10 µM [4] is reported as 80%.

For `COc1cc2nccc(Oc3ccc(C)cc3C(=O)C(C)(C)C)c2cc1OC` [Compound r54], the inhibition at 3 µM [5] was 13% and the inhibition at 10 µM [6] was 73%.

In the case of `COc1cc2nccc(Oc3ccc(C)nc3-c3cc(C)nn3C)c2cc1OC` [Compound r257], the inhibition at 3 µM [3] is reported as 15% and the inhibition at 10 µM [4] is reported as 62%.

`COc1cc2c(Oc3cc4ccccc4nc3C)ccnc2cc1OCCCN1CCCCC1` [Compound r378] gave an inhibition at 3 µM [3] of 100% and an inhibition at 10 µM [4] of 100%.

With `COc1cc2nccc(Oc3ccc(C)nc3-c3cccc(CO)c3)c2cc1OC` [Compound r231] the inhibition at 3 µM [3] was 100% and the inhibition at 10 µM [4] was 100%.

Molecule `COC(=O)COc1cc2nccc(Oc3cc4ccccc4nc3C)c2cc1OC` [Compound r371] has an inhibition at 3 µM [3] of 28% and an inhibition at 10 µM [4] of 90%.

For `CCc1ccc(Oc2ccnc3cc(C(C)(C)C)sc23)c(-c2ccccn2)n1` [Compound 180, 3-(2-Tert-butyl-thieno[3,2-b]pyridin-7-yloxy)-6-ethyl-[2,2']bipyridine], the inhibition at 3 µM [1] was 74% and the inhibition at 10 µM [2] was 98%.

`COc1cc2nccc(Oc3cc4ccccc4nc3-c3ccc(F)cc3)c2cc1OC` [r285] gave an inhibition at 3 µM [3] of 65% and an inhibition at 10 µM [4] of 100%.

With `Cc1cc(Oc2ncnc3ccccc23)c(-c2ccccn2)nc1C` [Compound 23, 4-(5,6-Dimethyl-[2,2']bipyridinyl-3-yloxy)-quinazoline] the inhibition at 3 µM [1] was 78% and the inhibition at 10 µM [2] was 98%.

In the case of `COc1cc2c(Oc3cc4cccnc4nc3-c3ccccc3)ccnc2cc1OCCO` [Compound 178, 2-[6-Methoxy-4-(2-phenyl-[1,8]naphthyridin-3-yloxy)-quinolin-7-yloxy]-ethanol], the inhibition at 3 µM [1] is reported as 100% and the inhibition at 10 µM [2] is reported as 100%.

Work on `Cc1ccc(Oc2ccnc3ccc(OCC(C)(C)CO)cc23)c(-c2ncccn2)n1` [Compound 215, 2,2-Dimethyl-3-[4-(6-methyl-2-pyrimidin-2-yl-pyridin-3-yloxy)-quinolin-6-yloxy]-propan-1-ol] yielded an inhibition at 3 µM [1] of 79%.

Molecule `COc1cc2nccc(Oc3ccc(C)nc3-c3ccccc3)c2cc1OC` [Compound r223, 6,7-Dimethoxy-4-(6-methyl-2-phenyl-pyridin-3-yloxy)-quinoline] has an inhibition at 3 µM [3] of 99% and an inhibition at 10 µM [4] of 100%.

From patent EP1724268A1, “COMPOUND HAVING TGF-BETA INHIBITORY ACTIVITY AND PHARMACEUTICAL COMPOSITION CONTAINING SAME” (KIRIN BEER KABUSHIKI KAISHA, priority 2004, dated 2005)
